Assay results: US20230399341A1, “7-PHENYL SUBSTITUTED 2-AMINOQUINAZOLINE INHIBITORS OF HPK1” (MERCK SHARP & DOHME LLC, priority 2020, published 2023)

molecular target: T1, Human HPK1, catalytic domain (Homo sapiens, UniProt Q92918); assay: HPK1-SLP76 TR-FRET Assay; format: biochemical; settings: 75 pM HPK1, ATP 10 uM, SLP76 10 nM, 30 min pre-incubation, 60 min reaction
T1 sequence (Q92918 1-346): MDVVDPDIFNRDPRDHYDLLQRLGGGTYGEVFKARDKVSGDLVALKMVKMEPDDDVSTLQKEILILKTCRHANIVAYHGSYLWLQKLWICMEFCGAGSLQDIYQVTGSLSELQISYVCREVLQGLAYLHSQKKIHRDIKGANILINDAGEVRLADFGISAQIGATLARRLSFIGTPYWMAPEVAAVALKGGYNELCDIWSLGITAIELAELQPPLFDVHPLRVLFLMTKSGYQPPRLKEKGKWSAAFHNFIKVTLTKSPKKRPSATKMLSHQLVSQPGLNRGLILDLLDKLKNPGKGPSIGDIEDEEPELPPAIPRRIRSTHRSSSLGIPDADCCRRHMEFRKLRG

SMILES | IC50 [nM]
COc1cc(C(C)S(C)(=O)=O)ccc1Nc1ncc2c(N)c(F)c(-c3cnc4c(c3C)NCCO4)cc2n1 (single isomer, unassigned) [Compound 2-55, (R or S)-6-fluoro-N˜2˜-{2-methoxy-4-[1-(methylsulfonyl)ethyl]phenyl}-7-(8-methyl-2,3-dihydro-1H-pyrido[2,3-b][1,4]oxazin-7-yl)quinazoline-2,5-diamine] | 1.62
COc1cc2c(cc1Nc1ncc3ccc(-c4cccc(S(=O)(=O)N5CCCCC5)c4)cc3n1)CNCC2 [Compound 1-82, N-(6-methoxy-1,2,3,4-tetrahydroisoquinolin-7-yl)-7-{3-[(piperidin-1-yl)sulfonyl]phenyl}quinazo-line-2-amine] | 15.2
COc1cc2c(cc1Nc1ncc3ccc(-c4ccc(C(F)(F)C(N)=O)nc4)cc3n1)CN(C)CC2 [Compound 1-12, 2,2-difluoro-2-(5-{2-[(6-methoxy-2-methyl-1,2,3,4-tetrahydroisoquinolin-7-yl)amino]quinazolin-7-yl}pyridin-2-yl)acetamide] | 341
Cc1c(-c2c(F)c(N)c3cnc(Nc4ccc5c(c4)CN(C)CC54CC4)nc3c2Cl)cnc2c1NCCO2 (single isomer, unassigned) [Compound 2-108, (+ or −)-8-chloro-6-fluoro-N2-(2′-methyl-2′,3′-dihydro-1′H-spiro[cyclopropane-1,4′-isoquinolin]-7′-yl)-7-(8-methyl-2,3-dihydro-1H-pyrido[2,3-b][1,4]oxazin-7-yl)quinazoline-2,5-diamine] | 0.0134
CNC(=O)c1ccc(Nc2ncc3c(N)c(F)c(-c4cnc5c(c4C)NCCO5)cc3n2)c(OC)c1 [Compound 2-74, 4-{[5-amino-6-fluoro-7-(8-methyl-2,3-dihydro-1H-pyrido[2,3-b][1,4]oxazin-7-yl)quinazolin-2-yl]amino}-3-methoxy-N-methylbenzamide] | 0.266
CNC(=O)C1(c2ccc(Nc3ncc4c(N)c(F)c(-c5cnc6c(c5C)NCCO6)cc4n3)cc2)CC1 [Compound 2-81, 1-(4-((5-amino-6-fluoro-7-(8-methyl-2,3-dihydro-1H-pyrido[2,3-b][1,4]oxazin-7-yl)quinazolin-2-yl)amino)phenyl)-N-methylcyclopropane-1-carboxamide] | 0.0441
CNC(=O)C1CCc2cc(Nc3ncc4cc(F)c(-c5cnc6c(c5C)NCCO6)cc4n3)ccc21 (single isomer, unassigned) [Compound 1-119, (R or S)-5-{[6-fluoro-7-(8-methyl-2,3-dihydro-1H-pyrido[2,3-b][1,4]oxazin-7-yl)quinazolin-2-yl]amino}-N-methyl-2,3-dihydro-1H-indene-1-carboxamide] | 1.17
COc1cc2c(cc1Nc1ncc3c(N)c(F)c(-c4cnc5c(c4C)NCCO5)cc3n1)CN(C)CC2 [Compound 2-2, 6-fluoro-N~2~-(6-methoxy-2-methyl-1,2,3,4-tetrahydroisoquinolin-7-yl)-7-(8-methyl-2,3-dihydro-1H-pyrido[2,3-b][1,4]oxazin-7-yl)quinazoline-2,5-diamine] | 0.0915
COc1cc2c(cc1Nc1ncc3ccc(-c4ccccc4-c4nnc(C)o4)cc3n1)CN(C)CC2 [Compound 1-110, N-(6-methoxy-2-methyl-1,2,3,4-tetrahydroisoquinolin-7-yl)-7-[2-(5-methyl-1,3,4-oxadiazol-2-yl)phenyl]quinazolin-2-amine] | 302
CN1CCc2ccc(Nc3ncc4c(N)c(F)c(-c5cnc6c(c5Cl)NCCO6)cc4n3)cc2C1 [Compound 2-124, 7-(8-chloro-2,3-dihydro-1H-pyrido[2,3-b][1,4]oxazin-7-yl)-6-fluoro-N~2~-(2-methyl-1,2,3,4-tetrahydroisoquinolin-7-yl)quinazoline-2,5-diamine] | 0.0474
COc1cc2c(cc1Nc1ncc3ccc(-c4cc(N)ccc4C)cc3n1)CNCC2 [Compound 1-93, 7-(5-amino-2-methylphenyl)-N-(6-methoxy-1,2,3,4-tetrahydroisoquinolin-7-yl)quinazolin-2-amine] | 481
COc1cc2c(cc1Nc1ncc3ccc(-c4cnc(C#N)c(C)c4)cc3n1)CN(C)CC2 [Compound 1-104, 5-{2-[(6-methoxy-2-methyl-1,2,3,4-tetrahydroisoquinolin-7-yl)amino]quinazolin-7-yl}-3-methylpyridine-2-carbonitrile] | 212
COc1cc2c(cc1Nc1ncc3ccc(-c4ccc(S(N)(=O)=O)cc4C)cc3n1)CNCC2 [Compound 1-32, 4-{2-[(6-methoxy-1,2,3,4-tetrahydroisoquinolin-7-yl)amino]quinazolin-7-yl}-3-methylbenzene-1-sulfonamide] | 108
Cc1c(-c2cc3nc(Nc4ccc5c(c4)CCS5(=O)=O)ncc3c(N)c2F)cnc2c1NCCO2 [Compound 2-43, 5-{[5-amino-6-fluoro-7-(8-methyl-2,3-dihydro-1H-pyrido[2,3-b][1,4]oxazin-7-yl)quinazolin-2-yl]amino}-2,3-dihydro-1H-1-benzothiophene-1,1-dione] | 0.0849
CCN(CC)S(=O)(=O)c1cccc(-c2ccc3cnc(Nc4cc5c(cc4OC)CCNC5)nc3c2)c1 [Compound 1-80, N,N-diethyl-3-{2-[(6-methoxy-1,2,3,4-tetrahydroisoquinolin-7-yl)amino]quinazolin-7-yl}benzene-1-sulfonamide] | 23.9

Next, values leading:

IC50 [nM] | SMILES
669 | COc1cc2c(cc1Nc1ncc3ccc(N4CC(C(N)=O)C4)cc3n1)CN(C)CC2 [Compound 3-53, 1-{2-[(6-methoxy-2-methyl-1,2,3,4-tetrahydroisoquinolin-7-yl)amino]quinazolin-7-yl}-azetidine-3-carboxamide]
9.36 | COc1cc2c(cc1Nc1ncc3ccc(N4CC(CO)OC4=O)cc3n1)CN(C)CC2 (racemic) [Compound 3-4, (S and R)-5-(hydroxymethyl)-3-{2-[(6-methoxy-2-methyl-1,2,3,4-tetrahydroisoquinolin-7-yl)amino]quinazolin-7-yl}-1,3-oxazolidin-2-one]
2.6 | COc1cc2c(cc1Nc1ncc3ccc(Nc4cc(S(C)(=O)=O)ccc4C)cc3n1)CN(C)CC2 [Compound 3-24, N~2~-(6-methoxy-2-methyl-1,2,3,4-tetrahydroisoquinolin-7-yl)-N~7~-[2-methyl-5-(meth-ylsulfonyl)phenyl]quinazoline-2,7-diamine]
111 | COc1cc2c(cc1Nc1ncc3ccc(NCC4(C)COC4)cc3n1)CN(C)CC2 [Compound 3-62, N~2~-(6-methoxy-2-methyl-1,2,3,4-tetrahydroisoquinolin-7-yl)-N~7-[(3-methyloxetan-3-yl)-methyl]quinazoline-2,7-diamine]
520 | COCC1CN(c2ccc3cnc(Nc4cc5c(cc4OC)CCN(C)C5)nc3c2)C1 [Compound 3-68, 7-[3-(methoxymethyl)azetidin-1-yl]-N-(6-methoxy-2-methyl-1,2,3,4-tetrahydroisoquinolin-7-yl)quinazolin-2-amine]
118 | COc1cc2c(cc1Nc1ncc3ccc(N[C@H]4CC[C@@H](O)CC4)cc3n1)CN(C)CC2 [Compound 3-46, (1s,4s)-4-((2-((6-methoxy-2-methyl-1,2,3,4-tetrahydroiso-quinolin-7-yl)amino)quinazolin-7-yl)amino)cyclohexan-1-ol]
1.79 | COc1cc2c(cc1Nc1ncc3ccc(N4C(=O)OC[C@@H]4C)cc3n1)CN(C)CC2 [Compound 3-2, (S)-3-{2-[(6-methoxy-2-methyl-1,2,3,4-tetrahydroisoquinolin-7-yl)amino]quinazolin-7-yl}-4-methyl-1,3-oxazolidin-2-one]
